Read-outs that look alike come from different tables or passages of the source.
Experiments:
[1] = tested on: UHRF1_TTD R296-binding pocket mutants; assay: ITC binding to UHRF1 TTD R296-binding pocket mutants; settings: Supplementary Fig. 9e
From the text: (§1) The coding DNA fragments of following Tudor domains were cloned into pET28-MHL vector: SMN (aa 82–147), UHRF1 (aa 126–285), SMNDC1 (aa 53–130), TDRD3 (aa 554–611), SND1 (aa 650–910), TDRD2 (aa 327–420), FXR1 (aa 2–132), PHF1 (aa 28–87), SGF29 (aa 115–293), JMJD2A (aa 897–1101), 53BP1 (aa 1483–1606), SETDB1 (aa 190–410), LBR (aa 1–67), ZGPAT (aa 120–271). The coding regions of chromodomain of CBX7 (aa 8–62), PWWP domain of DNMT3A (aa 275–417), WD40 repeats of WDR5 (aa 24–334) and CW domain of ZCWPW2 (aa 21–78) were also subcloned into pET28-MHL vector to generate N-terminally His-tagged fusion protein. The MBT repeats of L3MBTL1 (aa 200–522) and L3MBTL2 (aa 170–625) were subcloned into pET28GST-LIC vector to generate N-terminally GST-His-tagged fusion protein. All the plasmids were generated by ligase independent cloning (Vazyme Biotech, C112 or ABclonal Technology, RK21020). […] The molecular weight of all protein samples was measured by mass spectrometry.
(§2) For the ITC measurement, the concentrated proteins were diluted into 20 mM Tris-HCl, pH 7.5, 150 mM NaCl (ITC buffer); the lyophilized compounds were dissolved in the same buffer, and the pH value was adjusted by adding 2 M NaOH or 2 M HCl. […] Compound concentrations were calculated from the mass and the volume of the solvent. […]

SND1 = target: T1, SND1 (Homo sapiens, UniProt Q7KZF4); assay: ITC binding to SND1
T1 construct: SND1 (aa 650–910); His (N, cleaved yes); made in house; host or cells: E. coli BL21 (DE3) Codon plus RIL
T1 sequence (Q7KZF4 650-910): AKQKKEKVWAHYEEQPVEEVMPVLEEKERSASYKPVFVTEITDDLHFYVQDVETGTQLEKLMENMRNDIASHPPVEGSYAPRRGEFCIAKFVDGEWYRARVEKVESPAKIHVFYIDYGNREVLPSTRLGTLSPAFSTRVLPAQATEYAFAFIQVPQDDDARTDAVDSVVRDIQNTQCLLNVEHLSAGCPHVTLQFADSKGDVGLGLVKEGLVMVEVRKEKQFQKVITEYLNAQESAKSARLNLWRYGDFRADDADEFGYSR
From the text: The coding DNA fragments of following Tudor domains were cloned into pET28-MHL vector: SMN (aa 82–147), UHRF1 (aa 126–285), SMNDC1 (aa 53–130), TDRD3 (aa 554–611), SND1 (aa 650–910), TDRD2 (aa 327–420), FXR1 (aa 2–132), PHF1 (aa 28–87), SGF29 (aa 115–293), JMJD2A (aa 897–1101), 53BP1 (aa 1483–1606), SETDB1 (aa 190–410), LBR (aa 1–67), ZGPAT (aa 120–271). The coding regions of chromodomain of CBX7 (aa 8–62), PWWP domain of DNMT3A (aa 275–417), WD40 repeats of WDR5 (aa 24–334) and CW domain of ZCWPW2 (aa 21–78) were also subcloned into pET28-MHL vector to generate N-terminally His-tagged fusion protein. The MBT repeats of L3MBTL1 (aa 200–522) and L3MBTL2 (aa 170–625) were subcloned into pET28GST-LIC vector to generate N-terminally GST-His-tagged fusion protein. All the plasmids were generated by ligase independent cloning (Vazyme Biotech, C112 or ABclonal Technology, RK21020). […] The proteins were further purified by Superdex75 or Superdex200 gel-filtration column (GE Healthcare) in a buffer containing 20 mM Tris-HCl, pH 7.5, 150 mM NaCl and 1 mM DTT. For crystallization experiments, purified proteins were concentrated to 18 mg/mL for SMN, 23 mg/mL for UHRF1 and 10 mg/mL for TDRD3 in the gel-filtration buffer. […] The molecular weight of all protein samples was measured by mass spectrometry.
For the ITC measurement, the concentrated proteins were diluted into 20 mM Tris-HCl, pH 7.5, 150 mM NaCl (ITC buffer); the lyophilized compounds were dissolved in the same buffer, and the pH value was adjusted by adding 2 M NaOH or 2 M HCl. […] Compound concentrations were calculated from the mass and the volume of the solvent. […] The protein with a concentration of 50–100 μM was placed in the cell chamber, and the compounds with a concentration of 0.5–2 mM in syringe was injected in 25, 20, or 20 successive injections with a spacing of 180, 150, or 120 s for VP-ITC, iTC-200, or Nano-ITC, respectively, as previously described[30]–[32]. iTC-200 or Nano-ITC data were consistent with those from the VP-ITC instrument, based on ITC results of SMN-compound 1 detected by using all the instruments. […]

SMNDC1 = target: T2, SMNDC1 (Homo sapiens, UniProt O75940); assay: ITC binding to SMNDC1; settings: Supplementary Fig. 2; read-out: Kd, ITC binding curve, SMNDC1
T2 construct: SMNDC1 (aa 53–130); His (N, cleaved yes); made in house; host or cells: E. coli BL21 (DE3) Codon plus RIL
From the text: as §1, §2

L3MBTL1 (MBT) = target: T3, L3MBTL1 (MBT) (Homo sapiens, UniProt Q9Y468); assay: ITC binding to MBT repeats of L3MBTL1
T3 construct: L3MBTL1 (aa 200–522); GST-His (N, cleaved yes); made in house; host or cells: E. coli BL21 (DE3) Codon plus RIL
From the text: as §1, §2

SETDB1 = target: T4, SETDB1 (Homo sapiens, UniProt Q15047); assay: ITC binding to SETDB1; settings: Fig. 1c
T4 construct: SETDB1 (aa 190–410); His (N, cleaved yes); made in house; host or cells: E. coli BL21 (DE3) Codon plus RIL
From the text: as §1, §2

SMN_N132D = target: T5, SMN_N132D (Homo sapiens, UniProt Q16637, N132D); assay: ITC binding to SMN Tudor mutant N132D; settings: Fig. 3d
T5 construct: cloned into pET28-MHL vector: SMN (aa 82–147); His (N, cleaved yes); made in house; host or cells: E. coli BL21 (DE3) Codon plus RIL
From the text: as §1, §2

SMN_W102F = target: T6, SMN_W102F (Homo sapiens, UniProt Q16637, W102F); assay: ITC binding to SMN Tudor mutant W102F; settings: Fig. 3d
T6 construct: SMN (aa 82–147); His (N, cleaved yes); made in house; host or cells: E. coli BL21 (DE3) Codon plus RIL
From the text: as §1, §2

SGF29 = target: T7, SGF29 (Homo sapiens, UniProt Q96ES7); assay: ITC binding to SGF29; settings: Fig. 1c
T7 construct: SGF29 (aa 115–293); His (N, cleaved yes); made in house; host or cells: E. coli BL21 (DE3) Codon plus RIL
From the text: as §1, §2

T3 sequence (Q9Y468 268-590): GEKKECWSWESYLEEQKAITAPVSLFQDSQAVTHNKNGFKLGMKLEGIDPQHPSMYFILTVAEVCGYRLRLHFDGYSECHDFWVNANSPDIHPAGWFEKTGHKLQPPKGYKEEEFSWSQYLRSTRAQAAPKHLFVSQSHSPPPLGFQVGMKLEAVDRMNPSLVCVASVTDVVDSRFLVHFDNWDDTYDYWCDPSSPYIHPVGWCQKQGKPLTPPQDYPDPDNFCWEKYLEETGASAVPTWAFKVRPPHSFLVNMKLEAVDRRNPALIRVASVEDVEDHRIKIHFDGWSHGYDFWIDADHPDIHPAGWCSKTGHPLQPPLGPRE
T2 sequence (O75940 53-130): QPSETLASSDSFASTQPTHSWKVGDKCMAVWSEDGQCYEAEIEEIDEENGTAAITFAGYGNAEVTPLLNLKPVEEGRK
T5 sequence (Q16637 82-147 N132D): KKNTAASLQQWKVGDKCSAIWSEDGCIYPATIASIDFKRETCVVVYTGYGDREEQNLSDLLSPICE
T6 sequence (Q16637 82-147 W102F): as the sequence (Q16637 82-147 N132D) above, with W21F, D51N counted along it
T7 sequence (Q96ES7 115-293): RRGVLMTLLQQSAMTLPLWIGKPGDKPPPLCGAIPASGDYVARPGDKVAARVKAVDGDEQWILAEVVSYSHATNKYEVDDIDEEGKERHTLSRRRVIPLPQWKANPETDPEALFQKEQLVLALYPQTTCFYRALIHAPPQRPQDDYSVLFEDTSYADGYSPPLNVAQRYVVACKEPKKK

With `Cn1c2c(c(=N)c3c1CCC3)CCC2` [Compound 1, 4-methyl-2,3,4,5,6,7-hexahydrodicyclopenta[b,e]pyridin-8(1H)-imine] the “binding to UHRF1_TTD R296-binding pocket mutants” value [1] was “totally disrupted”, the Kd (SND1; ITC, Fig. 1c, read-out: Kd (SND1)) was > 100 µM and the Kd (SND1; Supplementary Fig. 11c, VP-ITC, read-out: Kd, ITC binding curve, SND1) was 244 ± 51 µM. The “ITC binding curve, SND1 (in words)” value (SND1; Supplementary Fig. 2d) was “Weak binding”, the Kd (SMNDC1) was 2.8 ± 0.2 µM and the Kd (L3MBTL1 (MBT); ITC, Fig. 1c) was > 100 µM. For the same molecule, the “ITC binding curve, MBT repeats of L3MBTL1 (in words)” value (L3MBTL1 (MBT); Supplementary Fig. 2f) was “Weak binding”, the Kd (SETDB1) was > 244 µM and the Kd (SMN_N132D) was 3.3 ± 0.1 µM. The Kd (SMN_W102F) was > 100 µM and the Kd (SGF29) was > 244 µM.

Reference: PMC9481570, “A small molecule antagonist of SMN disrupts the interaction between SMN and RNAP II” (Nature Communications, 2022)
